Test results from patent US20250115582A1, “MOLECULAR GLUE DEGRADERS AND METHODS OF USING THE SAME” (Monte Rosa Therapeutics, Inc., priority 2022, published 2025).

Legend:
CK1α = target: T1, CK1α (Homo sapiens, UniProt P48729+Q96SW2); assay: CK1α NanoBiT assay (HiBiT-tagged CSNK1A1 in HEK293 clonal line); assay type: cell-based; settings: HEK293 HiBiT-CSNK1A1/LgBiT cells, 24 h incubation, luminescence
T1 construct: HEK293 clonal line with CRISPR KI HiBiT tag on CSNK1A1; host or cells: HEK293 clonal line, CRISPR HiBiT knock-in at CSNK1A1, stably expressing LgBiT
T1 sequence (P48729 whole entry): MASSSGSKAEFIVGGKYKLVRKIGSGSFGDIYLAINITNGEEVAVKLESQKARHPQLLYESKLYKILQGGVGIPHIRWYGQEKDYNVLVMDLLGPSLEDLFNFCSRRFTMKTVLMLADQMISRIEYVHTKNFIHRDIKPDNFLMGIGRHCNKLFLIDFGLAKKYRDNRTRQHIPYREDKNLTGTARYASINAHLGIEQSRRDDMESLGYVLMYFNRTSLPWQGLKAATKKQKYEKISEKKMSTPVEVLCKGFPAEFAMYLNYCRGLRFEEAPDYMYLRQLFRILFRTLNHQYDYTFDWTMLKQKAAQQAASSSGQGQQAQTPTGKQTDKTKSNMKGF
T1 sequence (Q96SW2 whole entry): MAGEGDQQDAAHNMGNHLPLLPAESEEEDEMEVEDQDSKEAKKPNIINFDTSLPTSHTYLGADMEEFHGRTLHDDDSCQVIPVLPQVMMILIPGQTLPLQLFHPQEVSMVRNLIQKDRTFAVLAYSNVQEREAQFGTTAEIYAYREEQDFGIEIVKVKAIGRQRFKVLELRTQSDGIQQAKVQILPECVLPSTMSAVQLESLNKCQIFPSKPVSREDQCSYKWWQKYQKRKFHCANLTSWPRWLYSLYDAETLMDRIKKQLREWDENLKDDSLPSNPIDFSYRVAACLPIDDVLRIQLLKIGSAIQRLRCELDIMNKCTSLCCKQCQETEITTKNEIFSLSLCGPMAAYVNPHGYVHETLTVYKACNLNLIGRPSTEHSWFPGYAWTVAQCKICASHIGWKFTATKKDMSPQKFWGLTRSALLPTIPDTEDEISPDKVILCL
T1 sequence (Q16531 2-1140 partner limits assumed): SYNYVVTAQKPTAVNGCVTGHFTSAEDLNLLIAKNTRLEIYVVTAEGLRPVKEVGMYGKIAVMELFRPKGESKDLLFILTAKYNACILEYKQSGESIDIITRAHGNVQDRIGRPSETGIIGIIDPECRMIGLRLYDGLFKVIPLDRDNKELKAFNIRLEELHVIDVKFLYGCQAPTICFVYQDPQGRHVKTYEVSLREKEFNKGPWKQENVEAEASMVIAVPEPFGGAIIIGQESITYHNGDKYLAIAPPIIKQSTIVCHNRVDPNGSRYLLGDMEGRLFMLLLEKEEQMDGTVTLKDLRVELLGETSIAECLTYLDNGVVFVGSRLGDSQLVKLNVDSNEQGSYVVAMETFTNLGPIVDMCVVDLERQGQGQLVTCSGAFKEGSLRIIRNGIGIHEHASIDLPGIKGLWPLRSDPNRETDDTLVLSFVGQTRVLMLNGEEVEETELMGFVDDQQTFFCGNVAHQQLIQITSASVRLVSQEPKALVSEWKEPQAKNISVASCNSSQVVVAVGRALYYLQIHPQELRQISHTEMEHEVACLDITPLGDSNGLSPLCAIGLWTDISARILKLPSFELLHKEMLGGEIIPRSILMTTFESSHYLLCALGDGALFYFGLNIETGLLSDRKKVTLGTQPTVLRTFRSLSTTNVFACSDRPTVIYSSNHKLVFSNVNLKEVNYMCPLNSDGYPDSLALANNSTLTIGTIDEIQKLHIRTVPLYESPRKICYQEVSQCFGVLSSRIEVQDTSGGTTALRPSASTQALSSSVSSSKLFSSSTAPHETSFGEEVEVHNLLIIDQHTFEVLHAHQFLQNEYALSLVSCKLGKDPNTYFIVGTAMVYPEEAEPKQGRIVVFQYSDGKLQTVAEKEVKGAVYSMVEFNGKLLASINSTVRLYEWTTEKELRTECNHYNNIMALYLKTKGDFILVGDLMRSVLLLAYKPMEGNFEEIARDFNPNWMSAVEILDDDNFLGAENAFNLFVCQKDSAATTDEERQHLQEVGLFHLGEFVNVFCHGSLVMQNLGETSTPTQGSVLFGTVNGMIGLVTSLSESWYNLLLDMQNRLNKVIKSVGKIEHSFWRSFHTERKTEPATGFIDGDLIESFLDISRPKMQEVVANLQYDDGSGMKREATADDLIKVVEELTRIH
Method in brief: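 HiBiT knock-in CSNK1A1 HEK293 cells stably expressing LgBiT were plated at 5000 cells/well in DMEM/10% FBS with 0.2% Endurazine live-cell substrate and pre-incubated 16 h. Compound was added to a final […] for 24 h at 37 °C before the luminescence read. Signal was normalised to plate controls, and DC50 came from a 3-parameter logistic fit (hillslope 1).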

GP2D = assay: GI50 growth inhibition, CyQUANT, GP2D; assay type: cell-based; settings: GP2D cells, 120 to 168 hours
Method: (§1) SKCO1, LS180, and LS174T cell lines were purchased from ATCC. CW2 cell line was purchased from Riken. GP2D cell line was purchased from Sigma/ECACC. All cell lines were cultured in manufacturer's recommended media at 37° C., 5% CO2. Briefly, cells were suspended in 200 μL of media and seeded at 300 to 1,800 cells per well in tissue culture treated 96-well plates with black walls and clear bottom. Plates were incubated overnight and initial (T0) read was performed the following day using CyQUANT Direct Cell Proliferation Assay Kit (Thermo Fisher Scientific) according to manufacturer's protocol. All compounds were solubilized in DMSO and prepared at 3-fold serial dilution, using 9 points starting at 30 μM as highest concentration, administered to cells and incubated for 120 to 168 hours, at which point CyQUANT assay measurement was performed using Acumen Cellista instrument (Ex/Em 480/520 nm). Media-only wells were used as blank, and 0.3% DMSO was used as DMSO-treated cell control. Growth inhibition (percent response) was calculated using the following formula in Excel: “=if ([Compound treated Day N]>[Untreated Day 0, AVG], ([Compound treated Day N]−[Untreated Day 0, AVG])/([Untreated Day N]−[Untreated Day 0, AVG])*100, ([Compound Treated Day N]−[Untreated Day 0, AVG])/([Untreated Day 0, AVG])*100)”. GI50 is the response corresponding to the 50% of untreated control.
(§2) GI50 data are reported in Tables 4a, 4b, 4c, 4d, and 4e for compounds in Table 1. In Tables 4a, 4b, 4c, 4d, and 4e below, According to the code, A represents a GI50 value of ≤0.1 μM, B represents a GI50 value>0.1 μM and ≤1 μM, C represents an GI50 value>1 μM.

CW2 = assay: GI50 growth inhibition, CyQUANT, CW2; assay type: cell-based; settings: Homo sapiens, CW-2, CW2 cells, 120 to 168 hours
Method: as §1, §2

[1] = Mouse oral PK at 10 mg/kg; assay type: in vivo; settings: male BALB/c mice, PO 10 mg/kg, plasma
Method: Male BALB/c mice were fasted overnight and administered a discrete, PO dose of Compound 154 or Compound 147 at 10 mg/kg.
Blood samples were collected serially from three animals/time-point following PO administration of the test compounds to the mice and placed in tubes containing K2EDTA. The blood samples were centrifuged, and the aliquots of the resulting plasma stored frozen at −60 to −90° C.
The plasma samples were analyzed by LC-MS/MS to determine concentrations of the test compounds. The in-life portion of the study and the bioanalysis of plasma samples was conducted at Wuxi (China).
The pharmacokinetic parameters for compound 154 or compound 147 were calculated by non-compartmental analysis using Phoenix WinNonlin software.

SKCO1 = assay: GI50 growth inhibition, CyQUANT, SKCO1; assay type: cell-based; settings: Homo sapiens, SK-CO-1, SKCO1 cells, 120 to 168 hours
Method: as §1, §2

SMILES	DC50 (CK1α)	GI50 (GP2D)	GI50 (CW2)	Tmax [1]	AUC ([1]; Mean ± SD)	AUC(0-t) ([1]; Mean ± SD)	Cmax ([1]; Mean ± SD)	GI50 (SKCO1)	half-life ([1]; Mean ± SD)
O=C1CCC(N2Cc3cc(NC(=O)c4ccc(Cl)cc4)ccc3C2=O)C(=O)N1 (centres unmarked) [Compound 147]	< 0.1 µM	> 1000 nM	100 to 1000 nM	0.5 h	1210 ± 235 ng·h/mL	1170 ± 258 ng·h/mL	574 ± 76.8 ng/mL	100 to 1000 nM	–
O=C1CCC(N2Cc3cc(NC(=O)c4ncn(-c5ccccc5)c4C(F)(F)F)ccc3C2=O)C(=O)N1 (centres unmarked) [Compound 154, N-(2-(2,6-dioxopiperidin-3-yl)-1-oxoisoindolin-5-yl)-1-phenyl-5-(trifluoromethyl)-1H-imidazole-4-carboxamide]	< 0.1 µM	100 to 1000 nM	< 100 nM	1 h	50900 ± 10400 ng·h/mL	50900 ± 10300 ng·h/mL	12900 ± 2560 ng/mL	< 100 nM	2.19 ± 0.24 h
